Data reported in publication PMC11432330, “Novel Drug-like HsrA Inhibitors Exhibit Potent Narrow-Spectrum Antimicrobial Activities against Helicobacter pylori” (International Journal of Molecular Sciences, 2024).

Test system: H. pylori HsrA
Experiment: Fluorescence-based thermal shift assay (HTS of Maybridge HitFinder library) for HsrA ligands
Type: binding, Helicobacter pylori
Settings: 10 µM HsrA, 250 μM compound, vs DMSO controls
Description: High-throughput screening (HTS) of the Maybridge HitFinder^TM chemical library for H. pylori HsrA ligands was assessed by a fluorescence-based thermal shift assay, according to previously described procedures. Briefly, a reaction mixture containing 50 mM Tris-HCl (pH 8), 150 mM NaCl, 10% glycerol, 5 mM DTT, SYPRO® Orange ready-to-use fluorescent stain (Thermo Fisher Scientific) at a final concentration of 10 ×, and 10 µM HsrA was freshly prepared. Next, 90 μL was dispensed in every well of V-shape 96-well plates ABgene^TM Thermo-Fast^TM 96 (Thermo Fisher Scientific). Wells of columns 1 and 12 received 10 μL of DMSO (vehicle) and were used as the reference controls. The rest of the wells (columns 2 to 11) received 2.5 μL of four different compounds from the HitFinder library (250 μM as final concentration each). The unfolding curve corresponding to each well was registered from 25 °C to 75 °C in 1 °C steps using an Mx3005P™ qPCR System (Agilent Technologies, Inc., Santa Clara, CA, USA), and analyzed by Origin 7.0 (OriginLab, Northampton, MA, USA) using a homemade script that determined the midpoint temperature of unfolding (Tm).

SMILES	ΔTm (upshift of midpoint temperature of unfolding of HsrA) [°C]
N#C/C(=C\C=C\c1ccccc1)c1nc2ccccc2[nH]1 [Ligand XII]	9
CSc1cccc(NC(=S)NCCNc2c([N+](=O)[O-])cc(C(F)(F)F)cc2[N+](=O)[O-])c1 [Ligand IV]	16
